Experimental data as given in patent publication US20260240851A1, “Treatment of Parkinson's Disease in a Patient Using a Glucocerebrosidase Activator” (BIAL - R&D Investments, S.A., priority 2023, published 2026).

Assays:
[1] = BIA 28-6156-105: continuous cardiac monitoring, concentration-QTc analysis
[2] = Phase 2 placebo-controlled study of Compound A in GBA-PD (Example 3); assay type: in vivo, human
Text: This study is a Phase 2, randomized, double-blind, placebo-controlled, multiple oral dose study of Compound A in subjects (aged 35 to 80 years, inclusive) with GBA-PD. The subjects have a clinical diagnosis of PD for at least 1 year and for no longer than 7 years before initiation of screening (for Part A), as confirmed by a neurologist using the MDS Criteria for Parkinson's Disease, have a modified Hoehn and Yahr score 2.5, have a score of ≥22 on the Montreal Cognitive Assessment (MoCA), and are receiving symptomatic treatment for PD. […] The objectives of this study are to investigate the efficacy, safety, tolerability, pharmacodynamics and PK of once-daily oral administration of Compound A.
Genetic screening of the subjects is performed using blood collected (preferably whole blood samples). Subjects are screened by sequencing of the full GBA1 gene, with specifications of any PD risk-associated variants that are identified. Subjects are also screened for the presence or absence of PD risk-associated variants in the LRRK2 (Leucine-rich repeat kinase 2) gene. Subjects who have an LRRK2 pathogenic variant are not eligible for Part B (Double-Blind Treatment) of the study.
Subjects that have a pathogenic variant in the glucocerebrosidase 1 (GBA1) gene (GBA-PD) (for example, see Appendix 1) and have been on a stable dose of PD medication for at least 30 days (at least 60 days for rasagiline) before commencing treatment are included in the next stage of the trial. In addition, subjects with the following are excluded from further treatment: • The subject has Gaucher's disease (GD), as defined by clinical signs and symptoms (i.e., hepatosplenomegaly, cytopenia, skeletal disease), and/or a medical history of marked deficiency of GCase plasmatic activity (preferably GCase whole blood activity) compatible with GD. • The subject is homozygous for a GBA1 pathogenic variant that is known to be associated with GD or compound heterozygous for 2 alleles that are known to be associated with GD. • The subject carries a known PD-associated LRRK2 pathogenic variant (for example, see Appendix 2). • The subject has atypical or secondary parkinsonism by medical history or in the opinion of the investigator. Atypical parkinsonism includes, but is not limited to, diagnoses of progressive supranuclear palsy, cortico-basal syndrome, and multiple system atrophy. Secondary parkinsonism includes drug-induced, toxin-induced, postinfectious, posttraumatic, or vascular parkinsonism. • The subject is using a strong CYP3A4 modulator at the time of screening for Part B. • The subject is using a breast cancer resistance protein (BCRP) substrate (e.g. pravastatin, rosuvastatin, glyburide) at the time of screening for Part B. • (Optionally) The subject has used any of the following medications within 60 days before Baseline: typical or atypical antipsychotics (including, but not limited to, clozapine, pimavanserin, olanzapine, quetiapine, risperidone, and aripiprazole); metoclopramide; prochlorperazine; methyldopa; tetrabenazine; deutetrabenazine; valbenazine; reserpine; or a prior history or continuation or initiation during the study of ambroxol at doses >120 mg/day.
Subjects are randomly assigned to three groups who receive i) Compound A 10 mg, once daily, oral administration, ii) Compound A 60 mg, once daily, oral administration, or iii) Placebo, once daily, oral administration. Subjects also receive their usual PD medications throughout the study. Randomization is stratified by major/severe (e.g., heterozygous for N370S, D409H, H255Q, D140H, G202R, L324P, I260T, L444P, A190T, R120W; homozygous for T369M or E326K) or minor/mild (e.g., heterozygous for T369M or E326K) PD risk-associated variant. Alternatively, randomization is stratified by severity as a mild or severe GBA1 variant as described in Parlar, 2023 (also see Appendix 1). […]

[3] = clinical; details: both, human, plasma, 60 mg; for AUC(0-t): Sinemet portion, geometric mean
Method: (§1) This was a Phase 1, non-randomized, open-label, 2-cohort, cross-over, DDI study in healthy male and female subjects.
In Cohort 1, a single oral dose 100 mg/25 mg levodopa-carbidopa (Sinemet®) IR was administered alone on Day 1.

[4] = BIA 28-6156-106 mass balance recovery, metabolite profiling and PK of 14C-Compound A; assay type: in vivo, human
Method: This was a Phase 1, single-dose, mass balance recovery study of ^14C-Compound A in 1 cohort of healthy male subjects, aged 30 to 65 years. A total of 6 subjects received a single oral dose of 60 mg Compound A, containing not more than 3.7 MBq ^14C, under fasted conditions. Objectives included determining the routes and rates of elimination of ^14C-Compound A, identifying the structure of metabolites that account for more than 10% of circulating total radioactivity in plasma and total radioactive dose in urine and feces, exploring the PK of Compound A, evaluating the extent of distribution of TR into blood cells, and gathering additional safety and tolerability information for Compound A.

[5] = after 6 days of dosing with 60 mg, Madopar portion
Method: as §1
In Cohort 2, a single oral dose 100 mg/25 mg levodopa-benserazide (Madopar®) IR was administered alone on Day 1.

[6] = LTI-291-003: NeuroCart, MMSE, MDS-UPDRS, EEG; assay type: in vivo, human; details: 10, 30, 60 mg daily for 28 days, GBA-PD
Method: GluCer, GluSph, and LacCer were measured in plasma, PBMCs, and CSF as biomarkers of pharmacological effects. The pharmacodynamic evaluations also consisted of a battery of NeuroCart assessments (Saccadic Eye Movements, Smooth Pursuit Eye Movements, Adaptive Tracking, Body Sway, and Visual Verbal Learning Test); functional outcome measures (MDS-UPDRS Part III, and the MMSE); and pharmaco-EEG.

[7] = LTI-291-001: safety and tolerability; assay type: in vivo, human
Method: This study was a first-in-human Phase 1, randomized, double-blind, placebo-controlled, single-ascending dose study to evaluate the safety and tolerability, PK, and PD of escalating single oral doses of Compound A (3, 10, 30, and 90 mg) in 4 cohorts of healthy subjects. A total of 32 subjects received a single oral dose of Compound A (8 per dose group) and 8 subjects received placebo. The effect of food on the PK of Compound A was evaluated by administering a second single oral dose of 10 mg Compound A to the subjects in Cohort 2 on a separate occasion, after subjects had completed a high-fat breakfast. Blood samples for Compound A PK were collected up to 48 hours after each dose.

For `CCCCCO[C@H]1CC[C@H](NC(=O)c2cnn3c(C)cc(C)nc23)CC1` [Compound A, 5,7-dimethyl-N-((1S*,4S)-4-(pentyloxy)cyclohexyl)pyrazolo[1,5-a]pyrimidine-3-carboxamide], the “effects on cardiac ECG parameters” value ([1]; doses of 60 and 150 mg) was “no clinically relevant effects”, the “effect on ΔΔQTcF (concentration-QTc analysis)” value ([1]; plasma concentrations of Compound A up to approximately 7150 ng/mL) was no more than 10 ms and the “Mean plasma concentrations, 60 mg vs 10 mg” value ([2]; all measured time points) was “higher after the 60 mg dose than after the 10 mg dose”. For the same compound, the “time to worsening (MDS-UPDRS based and other measures)” value ([2]; some subjects, Compound A 10 or 60 mg daily up to 78 weeks vs placebo) was “increased time to worsening”, the “Mean change in lysosomal activity” value ([2]; vs placebo) was “higher” and the “Mean change in plasma concentrations of neurofilament light chain” value ([2]; vs placebo) was “lower”. For the same compound, the “Mean change of cerebral blood flow by arterial spin labeling with MRI” value ([2]; vs placebo) was “higher”, the “mean change in the level of GluSph” value ([2]; vs placebo) was “higher” and the Cmax [3] was 1940 ng/mL. It also gave a Tmax [3] of 2 h, an AUC(0-t) ([3]; AUC0-24, 60 mg Compound A alone) of 22800 ng·h/mL and an AUC(0-t) ([3]; AUC0-t, 60 mg Compound A alone) of 22700 ng·h/mL. The “radioactivity recovered in excreta, mean” value ([4]; 60 mg 14C-Compound A oral, fasted, 288-hour sampling period) was “approximately 93%”, the “exposure to Compound A as share of circulating plasma total recovery” value ([4]; based on AUC0-inf) was “approximately 92%” and the Tmax ([4]; male, human, plasma, single oral dose of 60 mg 14C BIA-28, read-out: Median Tmax) was 1.5 h. The AUC(0-inf) ([4]; male, human, plasma, single oral dose of 60 mg 14C BIA-28, read-out: plasma AUC0-inf, geometric mean) was 42100 ng·h/mL, the AUC(0-t) ([4]; male, human, plasma, single oral dose of 60 mg 14C BIA-28, read-out: plasma AUC0-last, geometric mean) was 41700 ng·h/mL and the Cmax ([4]; male, human, plasma, single oral dose of 60 mg 14C BIA-28, read-out: plasma Cmax, geometric mean) was 1750 ng/mL. For the same compound, the half-life ([4]; male, human, plasma, single oral dose of 60 mg 14C BIA-28, read-out: plasma half-life, geometric mean (converted)) was 21.5 h, the “steady state concentrations of Compound A” value [5] was “appeared not to have been reached” and the “effects on NeuroCart tests, MMSE, MDS-UPDRS, EEG” value [6] was “no dose-dependent effects”. For the same compound, the “AE fatigue, subjects” value ([7]; all Compound A groups) was 7.5%, the “AE headache, subjects” value ([7]; all Compound A groups) was 12.5% and the “AE somnolence, subjects” value ([7]; all Compound A groups) was 10%. The “at least one AE in the GI system organ class, subjects” value ([7]; all Compound A groups) was 7.5%, the “vital signs, laboratory safety assessments, ECG parameters” value ([7]; single doses) was “no clinically significant safety observations” and the “deaths, SAEs, severe AEs, discontinuations due to AEs” value ([7]; single doses 3-90 mg) was “No deaths, other SAEs, severe AEs, or discontinuations due to AEs”.
